{
  "source": "patent US20250312258A1",
  "about": "“2,3-PYRROLIDINEDIONE CONJUGATES AND METHODS OF USING THEREOF” (North Carolina State University, priority 2022, published 2025)",
  "tested_on": "MSSA ATCC 25923 biofilm",
  "assay": "Viable bacteria in supernatant and biofilm after single treatment of MSSA biofilm",
  "assay_type": "cell-based, Staphylococcus aureus",
  "excerpt": "FIG. 5 is a plot showing the effect of a single dose of different concentrations of Compound 4 on the concentration of bacteria in the supernatant over a methicillin-susceptible Staphylococcus aureus (MSSA ATCC 25923). FIG. 6 is a plot showing the time-dependent biofilm population following treatment of a methicillin-susceptible Staphylococcus aureus (MSSA ATCC 25923) biofilm with Compound 4. […] FIG. 5 is a plot showing the effect of a single dose of different concentrations of Compound 4 on the concentration of bacteria in the supernatant over a methicillin-susceptible Staphylococcus aureus (MSSA ATCC 25923). […] FIG. 6 is a plot showing the time-dependent biofilm population following treatment of a methicillin-susceptible Staphylococcus aureus (MSSA ATCC 25923) biofilm with Compound 4.",
  "data": [
    {"smiles": "CCC1C(c2ccc(C(F)(F)F)cc2)=C(O)C(=O)N1C1CCC(NC)CC1", "note": "(centres unmarked) [Compound 4]", "values": [
      {"measurement": "single dose at which no viable bacterial cells were detected in the treatment supernatant", "setting": "MSSA ATCC 25923, detection limit 10^2, FIG. 5", "result": "at least 16 μg/mL"},
      {"measurement": "viable biofilm-embedded bacterial cells", "setting": "MSSA ATCC 25923 biofilm, 24 hours after a single treatment at twice the MBEC, FIG. 6", "result": "no viable biofilm-embedded bacterial cells were detected"}
    ]}
  ]
}
